Test results from patent US4593090A, “Novel nitrosourea compounds, method for preparing same, and pharmaceutical composition containing same” (Gogo Kimura, priority 1981, dated 1986).
Where two headings read alike, the source gives them in different places.

Columns and labels:
Leukemia L1210 [1] = test: Activity against Leukemia L1210, intraperitoneal, increase in life span of mice; assay type: in vivo, female mice (BDF1 family); conditions: for ED (maximum ILS) / ED30: Mus musculus, L1210, ip, ip once a day for 5 successive days; for ED (maximum ILS): daily dosage giving maximum increase of life span, read-out: O.D. (optimum dosage); for ED30: daily dosage increasing average survival days by 30%, read-out: ILS30; for Survivors after 60 days / Max. ILS % / Therapeutic ratio TR: ip; for Survivors after 60 days: 6-membered group; for Max. ILS %: 60-day observation, versus control; for Therapeutic ratio TR: O.D./ILS30
Outline: (§1)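 Beginning 24 hours after intraperitoneal implantation of 1×10^5 leukemia cells, six-mouse groups of female BDF1 mice receive the test compound once daily for five consecutive days by the ip or oral route. Survival is recorded up to 60 days and compared with untreated controls.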

Ehrlich acites carcinoma = test: Growth-inhibiting effect against Ehrlich acites carcinoma; assay type: in vivo, male mice; conditions: Mus musculus, Ehrlich, 120 h, 5 days; for response vs control in vivo at 25 mg/kg: 25 mg/kg/day ip; for response vs control in vivo at 100 mg/kg: 100 mg/kg/day ip
Outline: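 Male mice (groups of 6) implanted intraperitoneally with 1×10^7 Ehrlich ascites cells; compounds in 1% Nikkol HCO-60 given i.p. once daily for 5 days starting 24 hrs post-implantation. Total packed cell volume measured at day 7; T/C% vs untreated group, scored - (100-66), + (65-41), ++ (40-11), +++ (10-0).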

[2] = Diuretic activity, acute sodium loaded mouse screening test; assay type: in vivo, male mice; conditions: 50 mg/kg oral in 1% saline; for Cl^- / K^+ / Na^+: urine
Method: The diuretic activity of the compounds of this invention was assayed by the diuresis screening test referred to as "acute sodium loaded mouse". This test was carried out by the following method.
The acute sodium loaded mouse screening test was carried out by using a 10-membered group of male mice (each weighing 18 to 24 g). Test compounds were incorporated in 1% saline (NaCl) solution and orally administered in a volume of 10 ml/kg. The mice were placed in metabolic cages. Each treated group consisted of 10-members. Five members were placed in one cage. Tests were conducted by oral administrations of (A) 1% saline (NaCl) solution to the control group and (B) 1% saline (NaCl) solution containing a test compound according to this invention.
The determination was carried out for sodium, potassium, and chlorine in each pooled urine sample. The determination of sodium and potassium was carried out by flame photometer. Chlorine was determined by chloride analysis apparatus. The analytical values of sodium, potassium, and chlorine were shown with an average mg equivalent (m Eq)/Kg/5 hours, and the diuretic activity was shown with an average urine volume (ml)/Kg/5 hours.

[3] = Acute toxicity (LD50, Behrens-Karber method); assay type: in vivo, ICR mice; conditions: mouse, in vivo, ip, mortality during 30 days
Method: Test compounds, dissolved or suspended in 0.5% aqueous CMC, were each intraperitoneally administered to ICR mice in a dose of 0.1 ml per 10 g body weight. LD50 (mg/kg) value of each test compound was calculated from the mortality of mice during 30 days by the Behrens-Karber method.

Leukemia L1210 [4] = test: Activity against Leukemia L1210, oral, increase in life span of mice; assay type: in vivo, female mice (BDF1 family); conditions: for ED (maximum ILS) / ED30: Mus musculus, L1210, oral once a day for 5 successive days; for ED (maximum ILS): daily dosage giving maximum increase of life span, read-out: O.D. (optimum dosage); for ED30: daily dosage increasing average survival days by 30%, read-out: ILS30; for Survivors after 60 days / Max. ILS % / Therapeutic ratio TR: oral; for Survivors after 60 days: 6-membered group; for Max. ILS %: 60-day observation, versus control; for Therapeutic ratio TR: O.D./ILS30
Outline: as §1

| SMILES | ED (maximum ILS) (Leukemia L1210 [1]) | ED30 (Leukemia L1210 [1]) | Survivors after 60 days (Leukemia L1210 [1]) | Max. ILS % (Leukemia L1210 [1]) | Therapeutic ratio TR (Leukemia L1210 [1]) | response vs control in vivo at 25 mg/kg (Ehrlich acites carcinoma; read-out: Activity) | response vs control in vivo at 25 mg/kg (Ehrlich acites carcinoma; read-out: T/C %) | response vs control in vivo at 100 mg/kg (Ehrlich acites carcinoma; read-out: Activity) | response vs control in vivo at 100 mg/kg (Ehrlich acites carcinoma; read-out: T/C %) | Urine volume [2] | Cl^- [2] | K^+ [2] | Na^+ [2] | LD50 at 720 h [3] | ED (maximum ILS) (Leukemia L1210 [4]) | ED30 (Leukemia L1210 [4]) | Survivors after 60 days (Leukemia L1210 [4]) | Max. ILS % (Leukemia L1210 [4]) | Therapeutic ratio TR (Leukemia L1210 [4]) |
| --- | --- | --- | --- | --- | --- | --- | --- | --- | --- | --- | --- | --- | --- | --- | --- | --- | --- | --- | --- |
| COCCN(C[C@H]1O[C@H](OC2CCCCC2)[C@H](O)[C@@H](O)[C@@H]1O)C(=O)N(CCCl)N=O [Compound 39, 3-(2-methoxyethyl)-3-(cyclohexyl α-D-glucopyranose-6-yl)-1-(2-chloroethyl)-1-nitrosourea] | 170 mg/kg | 2.47 mg/kg | 6/6 | > 700% | 68.8 | 0 to 10% | 0% | 0 to 10% | 0% | 9.2 ml/kg/5 hrs. | 0.7 mEq/kg/5 hrs. | 0.8 mEq/kg/5 hrs. | 0.6 mEq/kg/5 hrs. | 510 mg/kg | 220 mg/kg | 7.43 mg/kg | 5/6 | > 635% | 29.6 |
| COCCN(C[C@H]1O[C@H](OCC(C)C)[C@@H](O)[C@@H](O)[C@@H]1O)C(=O)N(CCCl)N=O [Compound 135, 3-(2-methoxyethyl)-3-(isobutyl α-D-mannopyranose-6-yl)-1-(2-chloroethyl)-1-nitrosourea] | 200 mg/kg | 2.92 mg/kg | 6/6 | > 700% | 68.5 | 0 to 10% | 0% | 0 to 10% | 0% | 9.7 ml/kg/5 hrs. | 0.8 mEq/kg/5 hrs. | 0.9 mEq/kg/5 hrs. | 0.7 mEq/kg/5 hrs. | 620 mg/kg | 240 mg/kg | 9.92 mg/kg | 6/6 | > 700% | 24.2 |
